Experimental data as given in patent publication US11198692B2, “Dihydro-pyrrolo-pyridine derivatives” (Pfizer Inc., priority 2017, dated 2021).

Target: T1, Human M4 receptors (Homo sapiens, UniProt P08173)
T1 construct: expressed in transfected cells
T1 sequence (P08173 1-479): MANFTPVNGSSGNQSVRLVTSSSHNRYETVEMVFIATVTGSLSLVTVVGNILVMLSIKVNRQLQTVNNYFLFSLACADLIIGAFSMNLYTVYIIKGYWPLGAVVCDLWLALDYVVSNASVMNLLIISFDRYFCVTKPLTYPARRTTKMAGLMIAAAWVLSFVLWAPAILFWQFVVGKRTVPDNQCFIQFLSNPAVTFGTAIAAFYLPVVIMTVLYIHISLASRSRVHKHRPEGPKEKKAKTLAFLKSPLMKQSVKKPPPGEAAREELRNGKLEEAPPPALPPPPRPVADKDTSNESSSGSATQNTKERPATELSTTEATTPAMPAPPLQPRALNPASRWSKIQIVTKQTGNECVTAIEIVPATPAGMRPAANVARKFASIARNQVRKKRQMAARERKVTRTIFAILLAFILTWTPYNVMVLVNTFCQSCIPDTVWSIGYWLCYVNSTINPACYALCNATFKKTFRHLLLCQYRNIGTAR
Test: M4 PAM cAMP assay (GloSensor)
Type: cell-based
Details: HEK293 GloSensor cells expressing hM4, with EC20 acetylcholine and isoproterenol, geometric mean of 2-4 determinations unless footnoted (b: >=5, c: single); for Emax / EC50 Mean Asymptote Maximum (%): Emax = maximum asymptote of fitted dose response curve; for Emax: read-out: EC50 Mean Asymptote Maximum (%)
Procedure: The M4 cAMP assay was designed to determine the potency and efficacy of muscarinic positive allosteric modulators (PAMs). Human M4 receptors were stably expressed in Human embryonic kidney (HEK293) cells expressed with the Promega GloSensor™ cAMP technology.
HEK293 GloSensor cells expressing hM4 cells were cultured in growth media containing DMEM with 10% FBS, 1% Penicillin/Streptomycin, 500 μg/mL G418, 200 μg/mL Hygomycin B, and 1% Glutamax. When cells had grown to 80%-90% confluency, cells were harvested and seeded at a density of 25,000 cells/40 μL well, in a 384 white walled plates (Becton Dickinson 356661). Plates were incubated at 37 degrees C. and 5% CO2 for use after 24 hours.
Compound Preparation for Activator Screen:
Test compounds were initially prepared as 100% DMSO stock solutions, then transferred and serially diluted in 384-well compound plates (Matrix #4325). Each compound was tested at 10 concentrations in duplicate per experiment. Compound plates are spotted with 0.2 μL/well activator at 400 times the final assay concentration. Positive and negative controls for the compound alone activator response was 10 μM acetylcholine (Sigma # A2661) and DMSO, respectively. EC20 of acetylcholine was also used to define PAM activities.
Promega GloSensor™reagent (Promega # E1291) had previously been aliquotted. For each experiment, a stock solution of GloSensor™ was thawed out and equilibration medium was prepared with 88% CO2-independent media (Invitrogen #18045088), 10% fetal bovine serum and 2% GloSensor™ cAMP Reagent stock solution. Stock solution was mixed. Culture media in cell plates was discarded, then replaced with 40 μL/well pre-warmed equilibration media, then incubated in the dark at room temperature for 2 hours. During the incubation, stimulation media containing agonist and EC20 acetylcholine was prepared. CO2-independent media containing 50 […] Isoproterenol representing an EC80 of b-adrenergic receptor activity (Sigma #16504, 400 times final concentration) and EC20 acetylcholine in 1.25% DMSO was added to all columns of the compound plate, with the exception of column 12 to allow for EC0 control. […] Compounds are now 5 times the final assay concentration. The plate was mixed using a plate agitator. At the end of the 2 hour GloSensor™ incubation, add 10 μL of the CO2-independent media containing agonist, EC20 acetylcholine and isoproterenol to the cell plate. Cell plate was then incubated for 10 minutes at room temperature, and then read using an EnVision plate reader (Perkin Elmer).
Data was exported from the EnVision plate reader. The percent effect for each well was determined using the mean values for the positive and negative controls on each plate for each read, specifically 100*(compound−negative control)/(positive control−negative control). Dose response curves were fitted to the compound percent effect data using a 4-parameter logistic fit model. Data was reported as EC50 and Emax, with the Emax as the maximum asymptote of the fitted dose response curve.

SMILES | Emax [%] | EC50 [µM] | EC50 Mean Asymptote Maximum (%)
CNc1nc(C)c(C)c2c1CN(C(=O)CCc1cn[nH]c1)C2 [Example 38, 1-[6,7-dimethyl-4-(methylamino)-1,3-dihydro-2H-pyrrolo[3,4-c]pyridin-2-yl]-3-(1H-pyrazol-4-yl)propan-1-one] | 102 | 0.0138 | –
Cc1nc(N)c2c(c1C)CN(C(=O)C[C@@H]1C[C@H]1c1ccc(F)nc1)C2 (relative stereo) [Example 7, 1-(4-Amino-6,7-dimethyl-1,3-dihydro-2H-pyrrolo[3,4-c]pyridin-2-yl)-2-[trans-2-(6-fluoropyridin-3-yl)cyclopropyl]ethanone] | 109 | 0.00645 | –
Cc1nc(-c2cnn(C)c2)c2c(c1C)CN(C(=O)CC1CN(c3cccnc3)C1)C2 [Example 13, 1-[6,7-dimethyl-4-(1-methyl-1H-pyrazol-4-yl)-1,3-dihydro-2H-pyrrolo[3,4-c]pyridin-2-yl]-2-[1-(pyridin-3-yl)azetidin-3-yl]ethanone] | 87.5 | 0.0206 | –
CNc1nc(C)c(C)c2c1CN(C(=O)CC1Cc3ccccc3C1)C2 [Example 24, 2-(2,3-dihydro-1H-inden-2-yl)-1-[6,7-dimethyl-4-(methylamino)-1,3-dihydro-2H-pyrrolo[3,4-c]pyridin-2-yl]ethanone] | 98.2 | 0.00727 | –
CNc1nc(C)c(C)c2c1CN(C(=O)C[C@@H]1C[C@H]1c1ccc(F)nc1)C2 (single isomer, unassigned) [Example 15, 1-[6,7-dimethyl-4-(methylamino)-1,3-dihydro-2H-pyrrolo[3,4-c]pyridin-2-yl]-2-[trans-2-(6-fluoropyridin-3-yl)cyclopropyl]ethanone] | – | 0.795 | 148%
Cc1ncc2c(c1C)CN(C(=O)CC1CN(c3cccnc3)C1)C2 [Example 52, 1-(6,7-dimethyl-1,3-dihydro-2H-pyrrolo[3,4-c]pyridin-2-yl)-2-[1-(pyridin-3-yl)azetidin-3-yl]ethanone] | 84.5 | 0.0361 | –
Cc1c2c(c(=O)n(C)c1C)CN(C(=O)C[C@@H]1C[C@H]1c1cccnc1)C2 (single isomer, unassigned) [Example 26, 5,6,7-trimethyl-2-{[trans-2-(pyridin-3-yl)cyclopropyl]acetyl}-1,2,3,5-tetrahydro-4H-pyrrolo[3,4-c]pyridin-4-one] | 90.8 | 2.14 | –
CNc1nc(C)c(C)c2c1CN(C(=O)C[C@@H]1C[C@H]1c1cccnc1)C2 (single isomer, unassigned) [Example 11, 1-[6,7-Dimethyl-4-(methylamino)-1,3-dihydro-2H-pyrrolo[3,4-c]pyridin-2-yl]-2-[trans-2-(pyridin-3-yl)cyclopropyl]ethanone] | – | 0.0016 | 94.8^b %
CNc1nc(C)c(C)c2c1CN(C(=O)CC1CN(c3ccnc(C(F)(F)F)c3)C1)C2C (single isomer, unassigned) [Example 43, 2-{1-[2-(trifluoromethyl)pyridin-4-yl]azetidin-3-yl}-1-[1,6,7-trimethyl-4-(methylamino)-1,3-dihydro-2H-pyrrolo[3,4-c]pyridin-2-yl]ethanone] | – | 3.67 | 152^c %
Cc1nc(N)c2c(c1C)CN(C(=O)C[C@@H]1C[C@H]1c1ccc(F)nc1)C2 (single isomer, unassigned) [Example 9, 1-(4-Amino-6,7-dimethyl-1,3-dihydro-2H-pyrrolo[3,4-c]pyridin-2-yl)-2-[trans-2-(6-fluoropyridin-3-yl)cyclopropyl]ethanone] | – | 0.0994 | 111%
CNc1nc(C)c(C)c2c1CN(C(=O)C[C@@H]1C[C@H]1c1ccc(F)cc1)C2 (single isomer, unassigned) [Example 40, 1-[6,7-dimethyl-4-(methylamino)-1,3-dihydro-2H-pyrrolo[3,4-c]pyridin-2-yl]-2-[trans-2-(4-fluorophenyl)cyclopropyl]ethanone] | – | 0.00677 | 121^c %
CNc1nc(C)c(C)c2c1CN(C(=O)C1CC1)C2 [Example 58, cyclopropyl[6,7-dimethyl-4-(methylamino)-1,3-dihydro-2H-pyrrolo[3,4-c]pyridin-2-yl]methanone] | 96.2 | 0.0952 | –
CNc1nc(C)c(C)c2c1CN(C(=O)CC1CN(c3ccc(F)nc3)C1)C2 [Example 51, 1-[6,7-dimethyl-4-(methylamino)-1,3-dihydro-2H-pyrrolo[3,4-c]pyridin-2-yl]-2-[1-(6-fluoropyridin-3-yl)azetidin-3-yl]ethanone] | 97.7 | 0.00326 | –
CNc1nc(C)c(C)c2c1CN(C(=O)C[C@@H]1C[C@H]1c1cncnc1)C2 (single isomer, unassigned) [Example 29, 1-[6,7-dimethyl-4-(methylamino)-1,3-dihydro-2H-pyrrolo[3,4-c]pyridin-2-yl]-2-[trans-2-(pyrimidin-5-yl)cyclopropyl]ethanone] | 96.3 | 0.69 | –
CNc1nc(C)c(C)c2c1CN(C(=O)CC1Cc3ccc(F)cc3C1)C2 (single isomer, unassigned) [Example 57, 1-[6,7-dimethyl-4-(methylamino)-1,3-dihydro-2H-pyrrolo[3,4-c]pyridin-2-yl]-2-(5-fluoro-2,3-dihydro-1H-inden-2-yl)ethanone] | 97 | 0.0309 | –
CNc1nc(C)c(C)c2c1CN(C(=O)C[C@@H]1C[C@H]1c1ccc(Cl)nc1)C2 (racemic) [Example 33, 2-[trans-2-(6-chloropyridin-3-yl)cyclopropyl]-1-[6,7-dimethyl-4-(methylamino)-1,3-dihydro-2H-pyrrolo[3,4-c]pyridin-2-yl]ethanone] | 128 | 0.00532 | –
CNc1nc(C)c(C)c2c1CN(C(=O)C[C@@H]1C[C@H]1c1ccc(C)nc1)C2 (single isomer, unassigned) [Example 46, 1-[6,7-dimethyl-4-(methylamino)-1,3-dihydro-2H-pyrrolo[3,4-c]pyridin-2-yl]-2-[trans-2-(6-methylpyridin-3-yl)cyclopropyl]ethanone] | – | > 10 | –
CNc1nc(C)c(C)c2c1CN(C(=O)C[C@@H]1C[C@H]1c1ccc(C)nc1)C2 (racemic) [Example 45, 1-[6,7-dimethyl-4-(methylamino)-1,3-dihydro-2H-pyrrolo[3,4-c]pyridin-2-yl]-2-[trans-2-(6-methylpyridin-3-yl)cyclopropyl]ethanone] | 105 | 0.00356 | –
Cc1nc(C(F)F)c2c(c1C)CN(C(=O)CC1CN(c3cccnc3)C1)C2 [Example 18, 1-[4-(difluoromethyl)-6,7-dimethyl-1,3-dihydro-2H-pyrrolo[3,4-c]pyridin-2-yl]-2-[1-(pyridin-3-yl)azetidin-3-yl]ethanone] | 91.7 | 0.0236 | –
COCc1nc(C)c(C)c2c1CN(C(=O)CC1CN(c3cccnc3)C1)C2 [Example 54, 1-[4-(methoxymethyl)-6,7-dimethyl-1,3-dihydro-2H-pyrrolo[3,4-c]pyridin-2-yl]-2-[1-(pyridin-3-yl)azetidin-3-yl]ethanone] | 95.8 | 0.153 | –
